Assay results reported in patent US20250144172A1, “ANTI-FIBROTIC SIALIDASE INHIBITOR COMPOUNDS AND METHODS OF USE” (The Texas A&M University System, priority 2016, published 2025).
Each block holds one compound with its values, some of them ahead of it.

Legend:
[1] = tested on: mice with bleomycin-induced fibrosis; experiment: mouse bleomycin model of pulmonary fibrosis; assay type: in vivo; details: day 21
Description: The successful aspiration of bleomycin into the lungs was confirmed by listening for a crackling noise heard after the aspiration. Mice were weighed daily, and euthanized using CO2 following NIH guidelines at day 21 after bleomycin aspiration. The experiment was performed in accordance with the recommendations in the Guide for the Care and Use of Laboratory Animals of the National Institutes of Health. The Texas A&M University Animal Use and Care Committee approved the protocol.
The BALs were clarified by centrifugation at 500×g for 10 minutes, and the supernatants were transferred to Eppendorf tubes. The supernatants were flash frozen with liquid nitrogen, and stored at −20° C. until further use.
After collection of BAL fluid, mouse lungs were inflated with prewarmed Optimal Cutting Temperature (OCT) embedding medium (VWR, Radnor, PA) and then embedded in OCT, frozen on dry ice, and then stored at −80° C. 6-micron cryosections of mouse lungs were mounted on Superfrost Plus® microscope slides (VWR). The sections on the slides were allowed to air-dry for 24-48 hours. The slides were then fixed in acetone at room temperature for 20 minutes and air-dried for 10 minutes.
Then, starting 24 hours after bleomycin had been administered, the mice were given daily intraperitoneal injections of 10 mg/kg DANA (Calbiochem) in PBS or 10 mg/kg oseltamivir (Sigma) in PBS. Both inhibitors are quite polar and thus probably remain in the extracellular space. Assuming 2 ml of extracellular space in a 20 gram mouse, these doses would then be ˜3 μM. At day 21, mice were sacrificed and BAL and cryosections of lungs were obtained as described for Example 3. The experiment was performed in accordance with the recommendations in the Guide for the Care and Use of Laboratory Animals of the National Institutes of Health. The Texas A&M University Animal Use and Care Committee approved the protocol.
Treatment of mice with oropharyngeal bleomycin results in an initial inflammation, and then a fibrosis that has begun by day 10 after bleomycin treatment. To determine if sialidase inhibitors decrease fibrosis when treatment starts after the initial inflammation stage and when fibrosis is present, mice were treated with oropharyngeal bleomycin to induce symptoms of pulmonary fibrosis as described above. Then, starting 10 days after bleomycin had been administered, the mice were given daily intraperitoneal injections of 10 mg/kg DANA (Calbiochem) in PBS or 10 mg/kg oseltamivir (Sigma) in PBS. At day 21, mice were sacrificed and BAL and cryosections of lungs were obtained as described above. The experiment was performed in accordance with the recommendations in the Guide for the Care and Use of Laboratory Animals of the National Institutes of Health. The Texas A&M University Animal Use and Care Committee approved the protocol.
To determine if sialidase inhibitors could also reduce TGF-β1 levels in mice, mice were treated with bleomycin or saline, then injected daily with saline, DANA or oseltamivir starting at day 10 after bleomycin treatment, as described in Example 9. The mice were euthanized at day 21 and sections of lung tissue were stained for TGF-β1. Results are presented in FIG. 11A and are representative of results for three mice per group.

human PBMC [2] = experiment: fibrocyte formation in human PBMC, serum-free medium; assay type: cell-based; details: 5 days; for fibrocyte formation / differentiation: 100 ng/ml sialidase, 10 μg/ml DANA or 1 μg/ml SAP
Description: Human peripheral blood was collected from healthy adult volunteers who gave written consent and with specific approval from the Texas A&M University human subjects Institutional Review Board. Peripheral blood mononuclear cells (PBMC) were isolated from blood using Ficoll-Paque Plus (GE Healthcare Biosciences, Piscataway, NJ). Human PBMC were incubated in serum-free medium (FibroLife basal media (LM-0001, Lifeline Cell Technology, Walkersville, MD), supplemented with 10 mM HEPES (Sigma-Aldrich, St. Louis, MO), 1x non-essential amino acids (Sigma-Aldrich), 1 mM sodium pyruvate (Sigma-Aldrich), 2 mM glutamine (Invitrogen, Carlsbad, CA), 100 U/ml penicillin, 100 μg/ml streptomycin (Sigma-Aldrich), and 1x ITS-3 (Sigma-Aldrich) in the presence of absence of 100 ng/ml recombinant human sialidases (Origene, Rockville MD), 10 μg/ml DANA (Calbiochem, San Diego, CA), or 1 μg/ml human SAP (Calbiochem). After 5 days, fibrocytes were counted, and results are presented in FIG. 5.

human PBMC [3] = experiment: TGF-β1 accumulation by human PBMC (antibody staining and ELISA); assay type: cell-based
Description: To determine if sialidases might cause cells to accumulate intracellular and extracellular TGF-β1, human PBMC were cultured with sialidases in 96 well plates at 5×10^5 cells/ml and 200 μl/well in FibroLife serum-free medium for five days, then air dried. The levels of TGF-β1 in or on the cells was detected by staining with an antibody against TGF-β1. Photomicrographs were analyzed by counting stained cells (FIG. 7B) and quantifying staining intensity using ImageJ (FIG. 7C).
PBMC were cultured in 96 well plates at 5×10^5 cells/ml and 200 μl/well in FibroLife serum-free medium. When the cells were plated, recombinant human sialidases were added to final concentrations of 200 ng/ml, and DANA or oseltamivir were added to 3 μM. After 5 days, culture supernatants were analyzed using a TGF-β1 ELISA kit (R&D Systems).

human NEU3 = human NEU3 (Homo sapiens (Human), UniProt Q9UQ49); experiment: human NEU3 sialidase inhibition; details: read-out: NEU3 IC50; human NEU3
human NEU3, sequence (Q9UQ49 whole entry): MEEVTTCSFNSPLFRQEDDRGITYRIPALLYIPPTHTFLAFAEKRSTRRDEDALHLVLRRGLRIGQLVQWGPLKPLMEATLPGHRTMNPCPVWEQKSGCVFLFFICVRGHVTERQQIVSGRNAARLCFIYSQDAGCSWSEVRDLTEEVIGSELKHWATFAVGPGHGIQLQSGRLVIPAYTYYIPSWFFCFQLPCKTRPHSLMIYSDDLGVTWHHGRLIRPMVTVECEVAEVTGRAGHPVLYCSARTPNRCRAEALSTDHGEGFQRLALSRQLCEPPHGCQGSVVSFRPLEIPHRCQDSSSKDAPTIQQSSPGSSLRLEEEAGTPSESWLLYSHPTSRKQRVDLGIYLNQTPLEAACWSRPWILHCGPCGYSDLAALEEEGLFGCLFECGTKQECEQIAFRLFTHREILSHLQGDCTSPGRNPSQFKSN

[4] = tested on: human monocytes and lymphocytes; experiment: sialidase levels in human PBMC cultured with IL-6 (flow cytometry); assay type: cell-based; details: 100 and 1000 pg/ml IL-6; three days
Description: To determine the effects of IL-6 on NEU3 production by human PBMC, PBMC were cultured as above in serum-free medium at 10^5 cells/ml with 2 ml/well in 6-well tissue culture plates (VWR) in the presence or absence of recombinant human interleukin-6 (IL-6) (BioLegend). After three days, the medium was carefully removed and the cells were washed with 1 ml of phosphate buffered saline (PBS) at room temperature. The cells were detached with 500 μl of Accutase cell detachment solution (VWR) per well for 6 minutes at 37° C. 1000 μl RPMI medium supplemented as described above with BCS, penicillin, streptomycin and glutamine was added per well to neutralize the Accutase. After pipetting the cell solutions 4 times, the cells were placed in sterile 1.7 ml microtubes (Genesee Scientific, San Diego, CA) and cells were collected by centrifugation at 5000×g for 10 minutes at 4° C. The pelleted cells were washed twice by resuspension with 1000 μl of ice-cold PBS and centrifugation. The cells were resuspended in 200 μl of ice-cold 2% (w/v) paraformaldehyde (EMS, Hatfield, PA), in PBS for 10 minutes on ice for fixation. 1000 μl of ice-cold PBS was added and cells were collected by centrifugation. The cells were resuspended in 200 μl of ice-cold 2% (w/v) bovine serum albumin (BSA) (VWR) in PBS (PBSA), for 10 minutes on ice for blocking. […]

[5] = recombinant human sialidase activity, 4MU-NANA cleavage at pH 6.4 and 7.0; assay type: biochemical
Description: In general, sialidase activity, including human sialidase activity, may be assessed at 37° C. in the presence of buffers ranging in pH from 3.7 to 7.4. Buffers with pH 3.7, 4.0, 4.6, 5.2 and 5.6 are 100 mM sodium acetate buffers. Buffers with pH 5.8, 6.4, 7.0 and 8.0 are based on Phosphate-Buffered Saline (PBS), with addition of 12 N HCl or 1 M NaOH to adjust the pH. Bovine serum albumin (BSA) is added to the buffer at a concentration of 100 ug/ml. Sialidase at a final concentration of 300 ng/ml is then added to the buffer. A sialidase inhibitor is then added to the mixture at a series of final concentrations. The reaction mixture is incubated for 30 minutes to allow the inhibitor to bind the sialidase. The fluorometric substrate 4MU-NANA [2′-(4-Methylumbelliferyl)-α-D-N-acetylneuraminic acid sodium salt hydrate is then added at a final concentration of 200 μM. Control reactions have no added inhibitor. The total volume of each reaction mixture is 0.1 ml. The cleavage of 4MU-NANA is then monitored by fluorescence every 20 minutes for 5 hours with excitation light at 360 nm and the fluorescence emission at 460 nm.
The fluorescence in the absence of sialidases is subtracted from all readings. The fluorescence of known concentrations of 4-methylumbelliferone is used to convert fluorescence to moles of product. […]

A549 cells = experiment: sialidase staining of A549 cells cultured with TGF-β1; assay type: cell-based, human; details: 10 ng/ml TGF-β1, three days
Description: (§1) TGF-β1 is strongly associated with fibrosis so its effects on sialidase expression were determined. Human lung adenocarcinoma cell line A549, human small airway epithelial cells, human pulmonary fibroblasts, and human immune cells were cultured with or without 10 ng/ml of recombinant active TGF-β1, which is a standard concentration used in tissue culture experiments. After three days for A549 cells, airway epithelial cells, and fibroblasts, or five days for immune cells, the cells were stained with antibodies against sialidases.

[6] = tested on: human pulmonary fibroblasts; experiment: human pulmonary fibroblasts cultured with TGF-β1; assay type: cell-based; details: 10 ng/ml TGF-β1, three days
Description: as §1

[7] = tested on: human small airway epithelial cells; experiment: sialidase staining of human small airway epithelial cells cultured with TGF-β1; assay type: cell-based; details: 10 ng/ml TGF-β1, three days
Description: as §1

human PBMC [8] = experiment: sialidase staining of human PBMC cultured with TGF-β1; assay type: cell-based; details: 10 ng/ml TGF-β1, five days
Description: as §1

IC50 (human NEU3): 61 µM
Compound: CC(=O)N[C@H]1[C@H]([C@H](O)[C@H](O)CO)OC(C(=O)O)=C[C@@H]1O [Compound 1, N-Acetyl-2,3-dehydro-2-deoxyneuraminic acid, reference compound]
collagen deposition in the lungs (Sirius red) ([1]; 10 mg/kg daily i.p. starting 24 hours after bleomycin): reduced | collagen deposition in the lungs (Sirius red) ([1]; 10 mg/kg daily i.p. starting at day 10): reduced | TGF-β1 levels in lung tissue (staining) ([1]; daily injection starting at day 10): reduced TGF-β1 levels | NEU4 potentiation of fibrocyte differentiation (human PBMC [2]; 10 μg/ml DANA with 100 ng/ml NEU4): inhibited the NEU4 potentiation of fibrocyte differentiation | fibrocyte formation / differentiation (human PBMC [2]): inhibited fibrocyte differentiation | effects of NEU2 and NEU3 on extracellular TGF-β1 (human PBMC [3]; inhibitor 3 μM, sialidases 200 ng/ml, 5 days, ELISA): blocked

Compound: IL-6: recombinant human interleukin-6 (IL-6) (BioLegend)
levels of NEU3 in human monocytes and lymphocytes [4]: significantly increased

Compound: NEU1: recombinant human NEU1 (sialidase 1), human neuraminidase 1
ability of SAP to inhibit fibrocyte formation (human PBMC [2]; 100 ng/ml sialidase with 1 μg/ml SAP): did not potentiate fibrocyte differentiation or counteract SAP | fibrocyte formation / differentiation (human PBMC [2]): did not potentiate fibrocyte differentiation | accumulation of TGF-β1 (human PBMC [3]; recombinant sialidase 200 ng/ml, five days): no significant effect | Sialidase activity ([5]; pH 6.4): 12.8 ± 1.3 μmole/min/mg protein | Sialidase activity ([5]; pH 7.0): 7.2 ± 0.9 μmole/min/mg protein

sialidase levels (antibody staining) ([6]; pulmonary fibroblasts): increase levels of NEU3
Compound: TGF-β1: recombinant active TGF-β1
sialidase levels (antibody staining) (A549 cells): increase levels of NEU3 | proliferation of human pulmonary fibroblasts [6]: increased the proliferation | sialidase levels (antibody staining) [7]: increase levels of NEU3, and slightly increased levels of NEU1 | sialidase levels (antibody staining) (human PBMC [8]): increased levels of NEU2 and NEU3 in some cells
